Test results reported in patent US20220031607A1, “INJECTION COMPOSITION CONTAINING FAB I INHIBITOR, AND PREPARATION METHOD THEREFOR” (CRYSTALGENOMICS, INC., priority 2019, published 2022).
In brackets after ≈: the same amount, converted by molar mass. Read-outs that look alike come from different tables or passages of the source.

Columns and labels:
Format in all cases: cell-based
[1] = system: Methicillin-susceptible Staphylococcus aureus strains; test: Drug susceptibility (MIC) of methicillin-susceptible clinical isolates
Protocol: (§1) In order to verify the inhibitory effect of the compound of formula 1 on antibiotic-resistant strains, drug susceptibility was evaluated by treating the compound of formula 1 with Staphylococcus aureus phenotype isolated from each patient. In an in vitro test for antibiotic development, the most important result can be MIC90 (minimum inhibitory concentration required to inhibit the growth of 90% of the total bacterial population). […] Appelbaum at Hershey Hospital who is recognized for its authority in the field of anti-infection worldwide.

[2] = system: Methicillin-resistant Staphylococcus aureus (MRSA) strains; test: Drug susceptibility (MIC) of MRSA clinical isolates
Protocol: as §1

[3] = system: Staphylococcus aureus ATCC 29213 (MSSA, standard strain); test: Susceptibility test (MIC), standard strain
Protocol: (§2) For the compound of formula 1, pharmacokinetic/pharmacodynamic experiments were conducted using a mouse infection model. To this end, experiments were conducted with Staphylococcus aureus ATCC 29213 (MSSA, standard strain) and 13B-382 (MRSA, clinical strain). As a medium, Mueller-Hinton broth or Cation-adjusted Mueller-Hinton broth was used. For the susceptibility test (minimum inhibitory concentration (MIC)), the compound of formula 1 was used.

[4] = system: Staphylococcus aureus 13B-382 (MRSA, clinical strain); test: Susceptibility test (MIC), clinical strain
Protocol: as §2

[5] = Staphylococcus aureus, Methicillin-susceptible, n = 103, read-out: MIC50
[6] = Staphylococcus aureus, Methicillin-susceptible, n = 103, read-out: MIC90
[7] = Staphylococcus aureus, MRSA, Methicillin-resistant, n = 100, read-out: MIC50
[8] = Staphylococcus aureus, MRSA, Methicillin-resistant, n = 100, read-out: MIC90
[9] = Methicillin-susceptible, n = 103

| Compound | MIC50 [1, 5] [µg/mL] | MIC90 [1, 6] [µg/mL] | MIC50 [2, 7] [µg/mL] | MIC90 [2, 8] [µg/mL] | MIC Range [1, 9] [µg/mL] | also measured |
| --- | --- | --- | --- | --- | --- | --- |
| CC[C@H]1OC(=O)[C@H](C)[C@@H](O[C@H]2C[C@@](C)(OC)[C@@H](O)[C@H](C)O2)[C@H](C)[C@@H](O[C@@H]2O[C@H](C)C[C@H](N(C)C)[C@H]2O)[C@](C)(O)C[C@@H](C)CN(C)[C@H](C)[C@@H](O)[C@]1(C)O [Azithromycin] | 1 (≈ 1.34 µM) | > 64 | > 64 | > 64 |  |  |
| CCCCCCCCCC(=O)N[C@@H](Cc1c[nH]c2ccccc12)C(=O)N[C@H](CC(N)=O)C(=O)N[C@@H](CC(=O)O)C(=O)N[C@@H]1C(=O)NCC(=O)N[C@@H](CCCN)C(=O)N[C@@H](CC(=O)O)C(=O)N[C@H](C)C(=O)N[C@@H](CC(=O)O)C(=O)NCC(=O)N[C@H](CO)C(=O)N[C@@H]([C@H](C)CC(=O)O)C(=O)N[C@@H](CC(=O)c2ccccc2N)C(=O)O[C@@H]1C [Daptomycin] | 1 (≈ 0.617 µM) | 1 (≈ 0.617 µM) | 0.5 (≈ 0.309 µM) | 0.5 (≈ 0.309 µM) | 0.25 to 2.0 | MIC Range ([2]; Methicillin-resistant, n = 100): 0.25 to 4.0 µg/mL |
| C[C@H]1COc2c(N3CCN(C)CC3)c(F)cc3c(=O)c(C(=O)O)cn1c23 [Levofloxacin] | 0.25 (≈ 0.692 µM) | 4 (≈ 11.1 µM) | 1 (≈ 2.77 µM) | > 32 | ≤0.06 to 32.0 |  |
| CC(=O)NC[C@H]1CN(c2ccc(N3CCOCC3)c(F)c2)C(=O)O1 [Linezolid] | 1 (≈ 2.96 µM) | 2 (≈ 5.93 µM) | 1 (≈ 2.96 µM) | 2 (≈ 5.93 µM) | 0.25 to 2.0 | MIC Range ([2]; Methicillin-resistant, n = 100): 0.25 to 2.0 µg/mL |
| Cc1onc(-c2ccccc2)c1C(=O)N[C@@H]1C(=O)N2[C@@H]1SC(C)(C)[C@@H]2C(=O)O [Oxacillin] |  |  |  |  |  | MIC ([3]; Staphylococcus aureus ATCC 29213, read-out: MIC): 0.25 µg/mL (≈ 0.623 µM); MIC ([4]; Staphylococcus aureus 13B-382, read-out: MIC): 16 µg/mL (≈ 39.9 µM) |
| CN[C@H](CC(C)C)C(=O)N[C@H]1C(=O)N[C@@H](CC(N)=O)C(=O)N[C@H]2C(=O)N[C@H]3C(=O)N[C@H](C(=O)N[C@H](C(=O)O)c4cc(O)cc(O)c4-c4cc3ccc4O)[C@H](O)c3ccc(c(Cl)c3)Oc3cc2cc(c3O[C@@H]2O[C@H](CO)[C@@H](O)[C@H](O)[C@H]2O[C@H]2C[C@](C)(N)[C@H](O)[C@H](C)O2)Oc2ccc(cc2Cl)[C@H]1O [Vancomycin] |  |  |  |  | 1.0 to 2.0 | MIC50 ([1]; Staphylococcus aureus): 1 µg/mL (≈ 0.69 µM); MIC90 ([1]; Staphylococcus aureus): 2 µg/mL (≈ 1.38 µM); MIC50 ([2]; Staphylococcus aureus, MRSA): 1 µg/mL (≈ 0.69 µM); MIC90 ([2]; Staphylococcus aureus, MRSA): 2 µg/mL (≈ 1.38 µM); MIC ([2]; Staphylococcus aureus, MRSA / VRSA): > 64 µg/mL; MIC ([3]; Staphylococcus aureus): 0.5 µg/mL (≈ 0.345 µM); MIC ([4]; Staphylococcus aureus): 1 µg/mL (≈ 0.69 µM) |
| Teicoplanin |  |  |  |  | 0.125 to 8.0 | MIC50 [1, 9]: 1 µg/mL; MIC90 [1, 9]: 2 µg/mL; MIC50 ([2]; Methicillin-resistant, n = 100): 1 µg/mL; MIC90 ([2]; Methicillin-resistant, n = 100): 2 µg/mL |
